# Entries after “also recorded” stand apart in the source; their conditions may differ.
# Assays:
# Set-up in all cases: species or system human
# circular strips of hTEB = experiment: Organ bath studies of hTEB circular strips following omentum implantation
# [1] = test system: circular strips of implanted engineered sphincter and gut segments; experiment: Real time force generation of circular strips of harvested sphincters and gut tissues
# [2] = test system: sphincter and rectal cuff cross sections; experiment: Physiological studies on cross sections of harvested sphincter and rectal cuff
compound,measurement,setting,value
"COC(=O)[C@@H](N)CCCNC(=N)N[N+](=O)[O-].Cl [LNAME, Nω-Nitro-L-arginine methyl ester hydrochloride]",inhibition of EFS-induced relaxation,circular strips of hTEB; pretreatment with LNAME,50%
same,EFS-induced relaxation after LNAME pre-treatment,"[1]; gut segments, without LNAME −355±8 μN, in µN",−223±29
same,effect on magnitude of EFS-induced relaxation,[1]; pre-incubation of implants with LNAME,significantly reduced
same,EFS-induced relaxation after LNAME pre-treatment,"[1]; sphincters, without LNAME −294±26 μN",−140±6 μN
CN1[C@@H]2CC[C@H]1C[C@@H](OC(=O)C(CO)c1ccccc1)C2 (stereo partly shown) [atropine],effect on ACh-induced contraction,circular strips of hTEB,did not cause a contraction; also recorded: inhibited
"NC1=N[C@H](O)[C@H]2[C@H]3O[C@]4(O)O[C@@H]([C@@H](O)[C@@]2(N1)[C@@H]4O)[C@]3(O)CO [TTX, tetrodotoxin]",effect on EFS-induced relaxation,circular strips of hTEB,abolished
same,effect on Ach-induced contraction,[2],significantly attenuated
same,effect on EFS-induced relaxation,[2],completely inhibited
same,effect on VIP-induced relaxation,[2],significantly diminished
same,effect on EFS-induced relaxation,[1],completely abolished
